Reference: article PMC7014678 (International Journal of Molecular Sciences, 2020)
Where two headings read alike, the source gives them in different places.

Assays:
VchCA-α [1] = molecular target: T1, VchCA-α (Vibrio cholerae, UniProt Q9KMP6); assay: biochemical
T1 construct: gene VC_A0274

VchCA-β [2] = molecular target: T2, VchCA-β (Vibrio cholerae, UniProt A0A086SLX8); assay: biochemical
T2 construct: gene can

BpsCA-β [3] = molecular target: T3, BpsCA-β (Burkholderia pseudomallei, UniProt Q63Y17); assay: biochemical
T3 construct: gene BPSL0372

Rv3273-β [4] = molecular target: T4, Rv3273-β (Mycobacterium tuberculosis, UniProt P96878); assay: biochemical
StCA2-β = molecular target: T5, StCA2-β; assay: stopped-flow CO2 hydration assay; format: biochemical, Salmonella enterica subsp. enterica serovar Typhimurium; details: CO2 1.7-17 mM; pH 8.3 TRIS; 20 mM Na2SO4; 15 min preincubation, room temperature
T5 construct: recombinant, obtained in-house; construct not described

VchCA-β [5] = molecular target: T2, VchCA-β; assay: biochemical; remark: listed apart in the source
BpsCA-β [6] = molecular target: T3, BpsCA-β; assay: biochemical; remark: listed apart in the source
VchCA-α [7] = molecular target: T1, VchCA-α; assay: biochemical; remark: listed apart in the source
BpsCA-γ = molecular target: T6, BpsCA-γ; format: biochemical, Burkholderia pseudomallei
T6 construct: gene BpsCA-gamma

Rv3273-β [8] = molecular target: T4, Rv3273-β; assay: biochemical; remark: listed apart in the source

T1 sequence (Q9KMP6 21-239 limits assumed): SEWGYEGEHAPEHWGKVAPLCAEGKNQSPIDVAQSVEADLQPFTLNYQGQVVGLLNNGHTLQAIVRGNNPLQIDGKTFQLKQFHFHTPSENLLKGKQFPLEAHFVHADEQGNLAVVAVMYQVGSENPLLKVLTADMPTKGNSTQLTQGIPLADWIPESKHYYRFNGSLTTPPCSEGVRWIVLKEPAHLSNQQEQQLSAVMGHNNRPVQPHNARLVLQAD
T3 sequence (Q63Y17 1-256): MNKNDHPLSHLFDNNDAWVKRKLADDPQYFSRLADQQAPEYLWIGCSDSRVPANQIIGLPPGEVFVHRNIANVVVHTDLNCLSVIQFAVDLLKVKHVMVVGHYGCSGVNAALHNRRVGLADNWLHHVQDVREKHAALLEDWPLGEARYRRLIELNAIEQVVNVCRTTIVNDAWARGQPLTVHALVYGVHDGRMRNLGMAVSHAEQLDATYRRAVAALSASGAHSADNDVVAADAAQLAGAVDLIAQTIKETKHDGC
T2 sequence (A0A086SLX8 1-222): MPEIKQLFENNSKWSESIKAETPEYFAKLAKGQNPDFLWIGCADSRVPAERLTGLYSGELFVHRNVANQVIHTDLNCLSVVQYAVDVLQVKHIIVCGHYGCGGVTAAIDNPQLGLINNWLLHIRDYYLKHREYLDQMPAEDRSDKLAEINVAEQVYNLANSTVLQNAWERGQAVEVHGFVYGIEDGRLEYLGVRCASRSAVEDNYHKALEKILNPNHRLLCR
T4 sequence (P96878 540-764 limits assumed): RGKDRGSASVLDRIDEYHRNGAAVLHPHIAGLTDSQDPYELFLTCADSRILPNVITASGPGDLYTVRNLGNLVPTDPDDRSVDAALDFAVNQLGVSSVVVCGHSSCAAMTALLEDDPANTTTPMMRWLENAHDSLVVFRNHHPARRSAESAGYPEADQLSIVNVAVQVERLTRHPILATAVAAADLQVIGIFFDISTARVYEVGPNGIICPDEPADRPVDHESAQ

SMILES	Ki (VchCA-α [1]) [nM]	Ki (VchCA-β [2]) [nM]	Ki (BpsCA-β [3]) [nM]	Ki (Rv3273-β [4]) [nM]	Ki (StCA2-β) [nM]	Ki (VchCA-β [5]) [nM]	Ki (VchCA-α [7]) [nM]	also measured
Cc1ccc([Se]CC(=O)Nc2ccc(S(N)(=O)=O)cc2)cc1 [7b]	7.7	762	> 10000	283	–	–	–	–
NS(=O)(=O)c1ccc(C[Se]c2ccc(NC(=O)CSc3ccc(Br)cc3)cc2)cc1 [5b]	45.8	581	> 10000	> 10000	8.2	–	–	–
NS(=O)(=O)c1ccc(CCNC(=O)C[Se]c2ccccc2)cc1 [8a]	44.4	6590	> 10000	1500	–	–	–	–
NS(=O)(=O)c1ccc(NC(=O)C[Se]c2ccccc2)cc1 [7a]	–	–	–	–	–	96.3	2.2	Ki (BpsCA-β [6]): 4090 nM; Ki (BpsCA-γ; CO2 1.7-17 mM, buffer pH for γ-CA not stated, 20 mM Na2SO4, 15 min preincubation, room temperature): 304 nM; Ki (Rv3273-β [8]): 203 nM
COc1ccc([Se]CC(=O)Nc2ccc([Se]Cc3ccc(S(N)(=O)=O)cc3)cc2)cc1 [9d]	8.9	–	> 10000	> 10000	7.5	82.9	–	–
COc1ccc([Se]CC(=O)NCCc2ccc(S(N)(=O)=O)cc2)cc1 [8c]	–	–	> 10000	> 10000	–	85	3.2	–
CC(O)CSCC(=O)Nc1ccc(S(N)(=O)=O)cc1 (stereo not drawn) [3e]	44.7	6650	> 10000	–	–	–	–	Ki (BpsCA-γ): 322 nM; Ki (Rv3273-β [8]): 214 nM
C=C(C)[C@H]1CCC(C)(O)C([Se]CC(=O)NCCc2ccc(S(N)(=O)=O)cc2)C1 (stereo partly drawn) [8e]	–	309	> 10000	> 10000	8.9	–	6.1	–
Cc1ccc(S(=O)(=O)N[C@H](C[Se]CC(=O)NCCc2ccc(S(N)(=O)=O)cc2)C(C)C)cc1 [8d]	62.3	828	> 10000	> 10000	–	–	–	–
Cc1ccccc1[Se]CC(=O)Nc1ccc(S(N)(=O)=O)cc1 [7c]	–	–	–	–	–	–	–	Ki (VchCA-α [1]; read-out: VchCA-α, inhibitor): 41.7 nM; Ki (VchCA-β [2]; read-out: VchCA-β, inhibitor): 6210 nM; Ki (BpsCA-β [3]; read-out: BpsCA-β, inhibitor): > 10000 nM; Ki (Rv3273-β [4]; read-out: Rv3273-β, inhibitor): > 10000 nM
